Laboratory results: patent publication US20240287134A1, “PEPTIDES FOR USE AS SENOTHERAPEUTIC AGENTS” (FUNDACIÓN PROFESOR NOVOA SANTOS, priority 2019, published 2024)
Where a SMILES comes first, the peptide text is derived from it. Where no end group is shown, it is not given here. The star is where a group is joined. X1 = CN(C)c1ccc2c(c1)Oc1cc(N(C)C)ccc1C21OC(=O)c2ccc(C(=O)*)cc21; TMR = fluorophore attached at the N-terminus

Assays:
Format in all cases: cell-based, human
[1] = test system: primary chondrocytes from articular cartilage of patients with OA; test: MTT cell viability assay to study toxicity; settings: 1-10-60-600 μM, 16 hours, with respect to untreated cells
Experimental: FIG. 2. Cell viability assay to study toxicity. A MTT viability assay was carried out in primary chondrocytes from articular cartilage of patients with OA treated with increasing concentrations of the peptide 8Arg-YSA1 (1-10-60-600 μM, with the octaarginine sequence and the TMR), for 16 hours.
An initial number of cells (5,000-10,000) were seeded in a 96-well culture plate and treated with different concentrations of the peptides. After the treatment, the medium was removed from each well and 10 μL of the MTT reagent was added to 100 μL of fresh medium and incubated at 37° C. for 4 hours. To solubilize the formazan crystals of the MTT reagent, it was incubated with DMSO at room temperature and under stirring for 30 minutes. Absorbance was measured at 570 nm in a plate reader (Nanoquant Infinite M200, TECAN).
Such as it is explained in FIG. 2, a MTT viability assay was carried out on primary chondrocytes from articular cartilage of patients with OA treated with increasing concentrations of the peptide 8Arg-YSA1 (1-10-60-600 μM, with the arginine sequence and the TMR), for 16 hours.

Cx43 in OA chondrocytes [2] = test: Western-blot of Cx43 levels; settings: 16 hours, vs untreated (UT)
Description: (§1) FIG. 4. Decrease in Cx43 levels in chondrocytes from patients with OA treated with peptides YSA1, YTP1 and TUB1. […] The decrease in the levels and activity of Cx43 activates the re-differentiation of the chondrocyte and decreases the accumulation of senescent cells, restoring the adult chondrocyte phenotype and tissue regeneration capacity. […] The results obtained were confirmed by western-blot using α-tubulin as loading control. […] (d) Chondrocytes isolated from donors with osteoarthritis were treated for 16 hours with the YTP1 peptide (150 μM) and the Cx43 levels were analysed by western blot, using α-tubulin as loading control. […] (e) Chondrocytes isolated from donors with OA were treated for 16 hours with the 8Arg-YSA1 peptide (5 μM) and the Cx43 levels were analysed by western blot, using α-tubulin as loading control. […] (g) Chondrocytes isolated from donors with OA were treated for 16 hours with the TUB1 peptide (5 μM) and the Cx43 levels were analysed by western blot, using the intensity of the Ponceau stain as loading control.
The cell pellet isolated from patients with OA and treated with the peptides or untreated were mechanically and chemically lysed using a needle of 29 gauges (BD Medical) in the presence of a cold lysis buffer (50 mM Tris HCl pH 7.5; 50 mM EDTA pH 8, 0.5% NP-40, 1% Triton X-100, 150 mM NaCl). Once the cell extracts were obtained, they were diluted in loading buffer (10% SDS, 200 mM Tris HCl pH 6.8, 50% glycerol, 0.1% Bromophenol Blue, 10% […]). Equal amounts of the cell extracts were separated on a 10% Acrylamide/Bisacrylamide (Acr/Bis) gel with SDS. The proteins were subsequently transferred to a polyvinylidene fluoride membrane (PVDF, Merck) in a Trans-Blot® SD Semi-Dry Transfer Cell (Bio-Rad). It was verified that the transfer was correct by staining the membrane with ATX Ponceau S (Sigma-Aldrich). To block possible nonspecific binding with the membrane, 1-hour incubation was performed at room temperature with a 5% milk solution in a TTBS buffer (20 mM Tris, 150 mM NaCl, 0.05% Tween-20). […]

Cx43 in OA chondrocytes [3] = test: Immunofluorescence for the detection of Cx43; settings: 200 μM, against untreated (UT) cells
Description: as §1
Primary cultures of chondrocytes at a confluence of 70-80% were treated with mimetic peptides of Cx43, and fixed with 2-4% paraformaldehyde (PFA, Sigma-Aldrich) in phosphate buffered saline (PBS, MP Biomedicals) for 10 minutes at room temperature. […]

[4] = test system: gap junctions (GJs) formed by Cx43 in OA chondrocytes; test: Scrape Loading/Dye Transfer (SL/DT) assay; settings: 150 μM, 16 hours, vs untreated (UT)
Experimental: FIG. 5. Peptides YSA1 and YTP1 decrease intercellular communication through gap junctions (GJs) formed by Cx43 in OA chondrocytes. (a) Scrape Loading/Dye Transfer (SL/DT) assay in which the transfer of Lucifer Yellow (LY) fluorophore between contact chondrocytes through GJs is studied.
Cells were seeded in culture plates to an approximate 90% confluence. After treating the cells with the peptides, the medium was removed and washed twice with PBS. The fluorescent compound Lucifer Yellow (LY, Cell Projects Ltd © Kent) 0.4% in PBS was added and two cuts were made, one with a scalpel and the other with a needle on the cell monolayer. The cells were incubated for 5-7 minutes at 37° C. to allow the transfer of the LY between undamaged cells in contact, after which the LY was removed, and cells were washed with PBS. The cells were fixed with 4% formaldehyde for 10 minutes. The visualization was performed in an inverted fluorescence microscope (Inverted Research Microscope Eclipse Ti, Nikon).
A Scrape Loading/Dye Transfer (SL/DT) test was performed in which the transfer of Lucifer Yellow fluorophore (LY) between contact chondrocytes through GJs was studied.

[5] = 150 μM, α-tubulin loading control

| Molecule | cell viability (MTT) [1] | Cx43 levels (western blot) (Cx43 in OA chondrocytes [2]; 5 μM, Ponceau stain loading control) | positivity for Cx43 (immunofluorescence) (Cx43 in OA chondrocytes [3]) | Cx43 levels (western blot) (Cx43 in OA chondrocytes [2]; [5]) | cell coupling through GJs (Lucifer Yellow transfer) [4] |
| --- | --- | --- | --- | --- | --- |
| CC(C)C[C@H](NC(=O)[C@H](C)NC(=O)CNC(=O)[C@H](CO)NC(=O)[C@@H](NC(=O)[C@H](C)NC(=O)[C@H](Cc1c[nH]cn1)NC(=O)[C@H](Cc1ccc(O)cc1)NC(=O)[C@@H]1CCCN1C(=O)[C@H](CC(=O)O)NC(=O)[C@H](CO)NC(=O)[C@H](CCCCN)NC(=O)CNC(=O)[C@H](CCCNC(=N)N)NC(=O)[C@H](CCCNC(=N)N)NC(=O)[C@H](CCCNC(=N)N)NC(=O)[C@H](CCCNC(=N)N)NC(=O)[C@H](CCCNC(=N)N)NC(=O)[C@H](CCCNC(=N)N)NC(=O)[C@H](CCCNC(=N)N)NC(=O)[C@H](CCCNC(=N)N)NC(=O)c1ccc2c(c1)C1(OC2=O)c2ccc(N(C)C)cc2Oc2cc(N(C)C)ccc21)[C@@H](C)O)C(=O)N[C@@H](CO)C(=O)N1CCC[C@H]1C(=O)N[C@@H](C)C(=O)N[C@@H](CCCCN)C(=O)N[C@@H](CC(=O)O)C(=O)O [8Arg-YSA1] (X1-RRRRRRRRGKSDPYHATSGALSPAKD-OH) | did not affect cell viability | – | – | – | – |
| Nt-FKGVKDRVKGK-Ct ({TMR}-FKGVKDRVKGK) [TUB1, TMR-labelled] | – | reduced the Cx43 levels | – | – | – |
| Nt-GKSDPYHATSGALSPAKD-Ct ({TMR}-GKSDPYHATSGALSPAKD) [YSA1, residues 242-259 of the C-terminal domain of Cx43; labelled at N-terminus with TMR fluorophore] | – | – | decrease in positivity | significantly reduced the levels of Cx43 | decrease in cell coupling |
| Nt-GKSDPYHATTGPLSPAKD-Ct ({TMR}-GKSDPYHATTGPLSPAKD) [YTP1, TMR-labelled] | – | – | decrease in positivity | reduced the levels of Cx43 | decreased cell coupling |
